What follows are compounds tested against T1, HCV NS3/4A protease complex, BMS strain (UniProt P27958, species not given/STRAIN_BMS) (assay: FRET peptide assay to monitor HCV NS3/4A proteolytic activity (BMS strain)). Settings: NS3/4A BMS strain, enzyme assay; read-out: IC 50 Range.
T1 construct: DNA encoding the recombinant HCV NS3/4A protease complex (amino acids 1027 to 1711) for these strains [H77 and J4L6S]; fused on or other part: For the H77 and J4L6S constructs, a three-lysine solubilising tail at the NS4A C-terminus and a Ni-NTA-purifiable tag from pET21b
T1 sequence (P27958 1027-1657, stated change not applied, one chain of several): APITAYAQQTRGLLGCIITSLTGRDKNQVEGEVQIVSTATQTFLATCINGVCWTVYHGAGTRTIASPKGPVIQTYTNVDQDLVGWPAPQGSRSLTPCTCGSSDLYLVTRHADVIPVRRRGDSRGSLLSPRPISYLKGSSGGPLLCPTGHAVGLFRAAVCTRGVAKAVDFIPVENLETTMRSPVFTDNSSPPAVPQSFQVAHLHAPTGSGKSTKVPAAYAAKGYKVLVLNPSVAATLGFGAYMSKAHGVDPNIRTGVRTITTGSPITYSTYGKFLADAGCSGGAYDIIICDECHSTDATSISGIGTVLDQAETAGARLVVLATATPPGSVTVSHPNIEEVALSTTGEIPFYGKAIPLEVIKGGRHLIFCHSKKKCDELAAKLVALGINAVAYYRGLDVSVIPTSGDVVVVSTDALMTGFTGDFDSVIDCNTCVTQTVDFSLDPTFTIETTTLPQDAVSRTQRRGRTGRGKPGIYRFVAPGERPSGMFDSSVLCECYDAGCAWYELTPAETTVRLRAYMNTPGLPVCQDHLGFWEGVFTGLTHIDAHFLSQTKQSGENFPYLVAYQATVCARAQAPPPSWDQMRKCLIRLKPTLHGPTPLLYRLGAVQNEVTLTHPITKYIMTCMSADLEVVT
Format: biochemical, Hepatitis C virus (genotype 1a)
Source text: Generation of Recombinant HCV NS3/4A Protease Complex
HCV NS3 protease complexes, derived from the BMS strain, H77 strain or J4L6S strain, were generated, as described below. These purified recombinant proteins were generated for use in a homogeneous assay (see below) to provide an indication of how effective compounds of the present disclosure would be in inhibiting HCV NS3 proteolytic activity.
Serum from an HCV-infected patient was obtained from Dr. T. Wright, San Francisco Hospital. An engineered full-length cDNA (compliment deoxyribonucleic acid) template of the HCV genome (BMS strain) was constructed from DNA fragments obtained by reverse transcription-PCR (RT-PCR) of serum RNA (ribonucleic acid) and using primers selected on the basis of homology between other genotype 1a strains. From the determination of the entire genome sequence, a genotype 1a was assigned to the HCV isolate according to the classification of Simmonds et al. (See P Simmonds, K A Rose, S Graham, S W Chan, F McOmish, B C Dow, E A Follett, P L Yap and H Marsden, J. Clin. Microbiol., 31(6), 1493-1503 (1993)). […] The infectious clones, H77 (1a genotype) and J4L6S (1b genotype) were obtained from R. Purcell (NIH) and the sequences are published in Genbank (AAB67036, see Yanagi, M., Purcell, R. H., Emerson, S. U. and Bukh, J. Proc. Natl. Acad. Sci. U.S.A. 94(16), 8738-8743 (1997); AF054247, see Yanagi, M., St Claire, M., Shapiro, M., Emerson, S. U., Purcell, R. H. and Bukh, J, Virology 244 (1), 161-172. (1998)).
The H77 and J4L6S strains were used for production of recombinant NS3/4A protease complexes. DNA encoding the recombinant HCV NS3/4A protease complex (amino acids 1027 to 1711) for these strains were manipulated as described by P. Gallinari et al. (see Gallinari P, Paolini C, Brennan D, Nardi C, Steinkuhler C, De Francesco R. Biochemistry. 38(17):5620-32, (1999)). Briefly, a three-lysine solubilizing tail was added at the 3′-end of the NS4A coding region. The cysteine in the P1 position of the NS4A-NS4B cleavage site (amino acid 1711) was changed to a glycine to avoid the proteolytic cleavage of the lysine tag. Furthermore, a cysteine to serine mutation was introduced by PCR at amino acid position 1454 to prevent the autolytic cleavage in the NS3 helicase domain. The variant DNA fragment was cloned in the pET21b bacterial expression vector (Novagen) and the NS3/4A complex was expressed in Escherichia coli strain BL21 (DE3) (Invitrogen) following the protocol described by P. Gallinari et al. (see Gallinari P, Brennan D, Nardi C, Brunetti M, Tomei L, Steinkuhler C, De Francesco R., J. Virol. 72(8):6758-69 (1998)) with modifications. Briefly, the NS3/4A protease complex expression was induced with 0.5 millimolar (mM) Isopropyl β-D-1-thiogalactopyranoside (IPTG) for 22 hours (h) at 20° C. A typical fermentation (1 Liter (L)) yielded approximately 10 grams (g) of wet cell paste. The cells were resuspended in lysis buffer (10 mL/g) consisting of 25 mM N-(2-Hydroxyethyl)piperazine-N′-(2-Ethane Sulfonic acid) (HEPES), pH 7.5, 20% glycerol, 500 mM Sodium Chloride (NaCl), 0.5% Triton X-100, 1 microgram/milliliter (“μg/mL”) lysozyme, 5 mM Magnesium Chloride (MgCl2), 1 μg/mL DnaseI, 5 mM β-Mercaptoethanol (βME), Protease inhibitor—Ethylenediamine Tetraacetic acid (EDTA) free (Roche), homogenized and incubated for 20 minutes (min) at 4° C. The homogenate was sonicated and clarified by ultra-centrifugation at 235000 g for 1 h at 4° C. Imidazole was added to the supernatant to a final concentration of 15 mM and the pH adjusted to 8.0. The crude protein extract was loaded on a Nickel—Nitrilotriacetic acid (Ni-NTA) column pre-equilibrated with buffer B (25 mM HEPES, pH 8.0, 20% glycerol, 500 mM NaCl, 0.5% Triton X-100, 15 mM imidazole, 5 mM βME). The sample was loaded at a flow rate of 1 mL/min. The column was washed with 15 column volumes of buffer C (same as buffer B except with 0.2% Triton X-100). […]

SMILES	IC50 [µM]
C=CC1CC1(NC(=O)[C@@H]1C[C@@H](NC(=O)c2ccncc2)CN1C(=O)[C@@H](NC(=O)CC1CC1)C(C)(C)C)C(=O)NS(=O)(=O)C1CC1 (some centres unmarked) [Compound 15]	0.15 to 15
C=CC1CC1(NC(=O)[C@@H]1C[C@@H](NC(=O)c2sc3ccccc3c2Cl)CN1C(=O)[C@@H](NC(=O)CC1CC1)C(C)(C)C)C(=O)O (single isomer, unassigned) [Compound 1, 1-({4-[(3-Chloro-benzo[b]thiophene-2-carbonyl)-amino]-1-[2-(2-cyclopropyl-acetylamino)-3,3-dimethyl-butyryl]-pyrrolidine-2-carbonyl}-amino)-2-vinyl-cyclopropanecarboxylic acid]	0.15 to 15
C=CC1CC1(NC(=O)[C@@H]1C[C@@H](NC(=O)c2cnc(N3CCCCC3)nc2-c2ccccc2)CN1C(=O)[C@@H](NC(=O)CC1CC1)C(C)(C)C)C(=O)NS(=O)(=O)C1CC1 (some centres unmarked) [Compound 23]	0.15 to 15
C=CC1CC1(NC(=O)[C@@H]1C[C@@H](N2CCN(Cc3ccccc3)CC2)CN1C(=O)[C@@H](NC(=O)OC)C(C)(C)C)C(=O)NS(=O)(=O)C1CC1 (some centres unmarked) [Compound 56]	> 15
C=CC1CC1(NC(=O)[C@@H]1C[C@@H](NC(=O)c2sc3ccccc3c2Cl)CN1C(=O)[C@@H](NC(=O)CC1CC1)C(C)(C)C)C(=O)O (single isomer, unassigned) [Compound 2, 1-({4-[(3-Chloro-benzo[b]thiophene-2-carbonyl)-amino]-1-[2-(2-cyclopropyl-acetylamino)-3,3-dimethyl-butyryl]-pyrrolidine-2-carbonyl}-amino)-2-vinyl-cyclopropanecarboxylic acid]	> 15
C=CC1CC1(NC(=O)[C@@H]1C[C@@H](N2Cc3ccccc3C2)CN1C(=O)[C@@H](NC(=O)C1CC1)C(C)(C)C)C(=O)NS(=O)(=O)C1CC1 (some centres unmarked) [Compound 57]	0.15 to 15
C=CC1CC1(NC(=O)[C@@H]1C[C@@H](N(C)C(=O)c2cc(-c3ccccc3)nc3ccccc23)CN1C(=O)[C@@H](NC(=O)OC(C)(C)C)C(C)(C)C)C(=O)NS(=O)(=O)C1CC1 (some centres unmarked) [Compound 42]	0.15 to 15
C=CC1CC1(NC(=O)[C@@H]1C[C@@H](NC(=O)c2c(OC)cccc2OC)CN1C(=O)[C@@H](NC(=O)CC1CC1)C(C)(C)C)C(=O)NS(=O)(=O)C1CC1 (some centres unmarked) [Compound 36]	0.15 to 15
C=CC1CC1(NC(=O)[C@@H]1C[C@@H](NC(=O)c2ccnc3ccccc23)CN1C(=O)[C@@H](NC(=O)CC1CC1)C(C)(C)C)C(=O)NS(=O)(=O)C1CC1 (some centres unmarked) [Compound 11]	0.15 to 15

Same assay, conditions: read-out: IC 50 Range; NS3/4A BMS strain, enzyme assay

SMILES	IC50 [µM]
C=CC1CC1(NC(=O)[C@@H]1C[C@@H](NC(=O)N2CCc3ccccc3C2)CN1C(=O)[C@@H](NC(=O)CC1CC1)C(C)(C)C)C(=O)NS(=O)(=O)C1CC1 (some centres unmarked) [Compound 54]	0.15 to 15
C=CC1CC1(NC(=O)[C@@H]1C[C@@H](NC(=S)Nc2cccc3ccccc23)CN1C(=O)[C@@H](NC(=O)OC(C)(C)C)C(C)(C)C)C(=O)NS(=O)(=O)C1CC1 (some centres unmarked) [Compound 46]	0.15 to 15
